Test results from patent publication US20210107874A1, “PHARMACEUTICAL FORMULATION OF CROTONYLAMINOPYRIDINE SALT” (priority 2017, published 2021).
Where “and” joins values, the source holds several entries; their conditions need not be identical. Identical values can stand only once. Like-named read-outs stand apart in the source and are kept apart here.

What was measured:
[1] = Solubility of synthesized tartrate salt and free base of compound 4; assay type: physicochemical; settings: free base; read-out: solubility
Procedure: The free base of compound 4 has a solubility of 0.8 mg/ml

[2] = Solubility of salts of compound 4: compound added in portions to acid in water until no clear solution; assay type: physicochemical; settings: for Dissolved g of 4 / pH: clear solution
Procedure: A defined amount of an acid (1.0 g) was weighed into a flask and dissolved in water (10 ml). […] The pH value was measured after each addition.
Thus 8 g of compound 4 in 10 ml of water can be dissolved.

[3] = PK studies of formulations, plasma by HPLC-MS/MS; assay type: in vivo; settings: Cattle
Procedure: The following formulations were prepared and administered to animals. Blood samples were collected at pre-defined time points and the amount of compound present in plasma at the time of sampling was determined by HPLC-MS/MS. Pharmacokinetic parameters were then calculated: Cmax, Tmax, Tlast, AUC. [table]

[4] = 0.5 g Acetic acid in 10 ml water
[5] = 1.0 g Citric acid in 10 ml water
[6] = 1.0 g Tartaric acid in 10 ml water
[7] = Form O62.5 (FormO type: L-tartaric acid, NaOH to pH 4.4, water), SC, 1.25 mg/kg

With `CCOc1cc(NCCNC(=O)/C=C/C(F)(F)F)ccn1` [Compound 4, (E)-N-[2-[(2-ethoxy-4-pyridyl)amino]ethyl]-4,4,4-trifluoro-but-2-enamide] the solubility [1] was 800 µg/mL, the “Dissolved g of 4” value [2, 4] was 1 g and the pH [2, 4] was 4.6. The “Dissolved g of 4” value [2, 5] was 2.5 g, the pH [2, 5] was 4.4 and the “Dissolved g of 4” value ([2]; 1.0 g Maleic acid in 10 ml water) was less than 0.1 g. The “Dissolved g of 4” value [2, 6] was 3.5 g, the pH [2, 6] was 4.2 and the appearance of solution ([2]; 2 g compound 4 and 1 g tartaric acid in 2.5 ml water) was “clear solution”. For the same compound, the “amount that can be dissolved in 10 ml of water” value ([2]; with tartaric acid, scaled from 2 g in 2.5 ml) was 8 g, the Tlast ([3]; Form A50 (NMP, propylene glycol, water), SC, 1.25 mg/kg) was 6.5 h and the Tlast ([3]; Form B62.5 (dimethyl acetamide, propylene glycol, water), SC, 1.25 mg/kg) was 5.33 h. The AUC [3, 7] was 372 ng·h/mL, the Cmax [3, 7] was 428 ng/mL and the Tlast [3, 7] was 4 h and 3 h. It also gave a Tmax [3, 7] of 18.6 min, a Tlast ([3]; FormC62.5 (propylene glycol, ethanol, Transcutol P), SC, 1.25 mg/kg) of 10.7 h and a Tlast ([3]; FormD62.5 (PEG 300, ethanol, Transcutol P), SC, 1.25 mg/kg) of 4 h. The Tlast ([3]; FormE62.5 (polyethylene glycol 300, ethyl alcohol 96%, water), SC, 1.25 mg/kg) was 5 h, the Tlast ([3]; FormF62.5 (polyethylene glycol, 1-octanol, 2-pyrrolidone), SC, 1.25 mg/kg) was 8 h and the Tlast ([3]; FormG62.5 (benzyl alcohol, ethyl alcohol 96%, polyethylene glycol 300), SC, 1.25 mg/kg) was 5.33 h. For the same compound, the Tlast ([3]; FormH62.5 (DMA, DMSO, 2-pyrrolidone), SC, 1.25 mg/kg) was 4 h, the Tlast ([3]; FormJ62.5 (DMSO, 2-pyrrolidone, ethyl lactate), SC, 1.25 mg/kg) was 4 h and the Tlast ([3]; FormK62.5 (2-pyrrolidone, Transcutol P, ethyl lactate), SC, 1.25 mg/kg) was 4 h. The Tlast ([3]; FormL50 (DMA, propylene glycol, water), SC, 1.25 mg/kg) was 4 h, the Tlast ([3]; FormM62.5 (L-tartaric acid, sodium hydroxide up to pH 4.6, water), SC, 1.25 mg/kg) was 3.33 h and the Tlast ([3]; FormO60 (FormO type: L-tartaric acid, NaOH to pH 4.4, water), SC, 1 mg/kg) was 2.67 h. The Tlast ([3]; FormP62.5 (L-tartaric acid, 2-pyrrolidone, NaOH, water), SC, 1.25 mg/kg) was 6.67 h, the Tlast ([3]; FormQ62.5 (L-tartaric acid, sodium carboxymethyl cellulose, NaOH up to pH 4.3, water), SC, 1.25 mg/kg) was 4 h and the Tlast ([3]; FormR50 (L-tartaric acid, 2-pyrrolidone, NaOH, water), SC, 1 mg/kg) was 6.67 h. For the same compound, the Tlast ([3]; FormS50 (L-tartaric acid, sodium carboxymethyl cellulose, 2-pyrrolidone, NaOH, water), SC, 1 mg/kg) was 8.67 h, the Tlast ([3]; FormT50 (DL-Lactic acid, hydrochloric acid up to pH 4.4, water), SC, 1 mg/kg) was 3.67 h and the AUC ([3]; bovine, plasma, sc, 1 mg/kg, FormR50 (L-tartaric acid, 2-pyrrolidone, NaOH, water), 1 mg/kg, read-out: AUC) was 248 ng·h/mL. The Cmax ([3]; bovine, plasma, sc, 1 mg/kg, FormR50 (L-tartaric acid, 2-pyrrolidone, NaOH, water), 1 mg/kg, read-out: Cmax) was 59.4 ng/mL, the Tmax ([3]; bovine, plasma, sc, 1 mg/kg, FormR50 (L-tartaric acid, 2-pyrrolidone, NaOH, water), 1 mg/kg, read-out: Tmax) was 60 min and the AUC ([3]; bovine, plasma, sc, 1 mg/kg, FormS50 (L-tartaric acid, sodium carboxymethyl cellulose, 2-pyrrolidone, NaOH, water), 1 mg/kg, read-out: AUC) was 339 ng·h/mL. The Cmax ([3]; bovine, plasma, sc, 1 mg/kg, FormS50 (L-tartaric acid, sodium carboxymethyl cellulose, 2-pyrrolidone, NaOH, water), 1 mg/kg, read-out: Cmax) was 69.3 ng/mL, the Tmax ([3]; bovine, plasma, sc, 1 mg/kg, FormS50 (L-tartaric acid, sodium carboxymethyl cellulose, 2-pyrrolidone, NaOH, water), 1 mg/kg, read-out: Tmax) was 79.8 min and the AUC ([3]; bovine, plasma, sc, 1 mg/kg, pH 4.4, FormO60 (FormO type: L-tartaric acid, NaOH to pH 4.4, water), 1 mg/kg, read-out: AUC) was 302 ng·h/mL. The Cmax ([3]; bovine, plasma, sc, 1 mg/kg, pH 4.4, FormO60 (FormO type: L-tartaric acid, NaOH to pH 4.4, water), 1 mg/kg, read-out: Cmax) was 374 ng/mL, the Tmax ([3]; bovine, plasma, sc, 1 mg/kg, pH 4.4, FormO60 (FormO type: L-tartaric acid, NaOH to pH 4.4, water), 1 mg/kg, read-out: Tmax) was 15 min and the AUC ([3]; bovine, plasma, sc, 1 mg/kg, pH 4.4, FormT50 (DL-Lactic acid, hydrochloric acid up to pH 4.4, water), 1 mg/kg, read-out: AUC) was 293 ng·h/mL. The Cmax ([3]; bovine, plasma, sc, 1 mg/kg, pH 4.4, FormT50 (DL-Lactic acid, hydrochloric acid up to pH 4.4, water), 1 mg/kg, read-out: Cmax) was 281 ng/mL and the Tmax ([3]; bovine, plasma, sc, 1 mg/kg, pH 4.4, FormT50 (DL-Lactic acid, hydrochloric acid up to pH 4.4, water), 1 mg/kg, read-out: Tmax) was 25.2 min.
